Data published in publication PMC7897990, “TriTOX: A novel Trichomonas vaginalis assay platform for high-throughput screening of compound libraries” (International Journal for Parasitology: Drugs and Drug …, 2021).
Like-named read-outs stand apart in the source and are kept apart here. Starred links: 1 amine or outer side, 2 acyl side, 3 side chain; linkers in the order of their positions; H or OH if unused. Positions of bridges follow the written chain, without caps; N, C: chain ends. Non-standard residues stand in square brackets, D forms with d. Residues, ends and D or L forms follow the SMILES beside them. *: point of attachment. hTyr(3S-OH,4S-OH,3'-OSO3H) = N[C@H](C(=O)O)[C@H](O)[C@@H](O)c1ccc(O)c(OS(=O)(=O)O)c1; Orn(4R-OH,5R-OH) = O=C([C@H](C[C@@H](O)[C@@H](O)N[*:3])N[*:1])[*:2]; Pro(3S-OH,4S-Me) = C[C@H]1CN[C@H](C(=O)O)[C@H]1O; Gln(3R-OH) = NC(=O)C[C@@H](O)[C@H](N)C(=O)O; Palmitoyl = CCCCCCCCCCCCCCCC(=O)*; Hyp = O=C(O)[C@@H]1C[C@@H](O)CN1

Columns and labels:
[1] = test system: Trichomonas vaginalis G3 trophozoites
[2] = test system: nontumorigenic neonatal foreskin fibroblast (NFF) cell line
[3] = HTS replicate 1, parasite screen 1 µg/mL
[4] = HTS replicate 2, parasite screen 1 µg/mL
[5] = NFF fibroblasts, single concentration 5 µg/mL
[6] = parasite screen at 1 µg/mL, replicate 1
[7] = parasite screen at 1 µg/mL, replicate 2
[8] = NFF_NS1 screen at 5 µg/mL, NFF cells
[9] = HTS single concentration, parasite screen 1 µg/mL, replicate 1
[10] = HTS single concentration, parasite screen 1 µg/mL, replicate 2
[11] = NFF_NS1 screen 5 µg/mL, single concentration
[12] = HTS, parasite screen at 1 µg/mL, replicate 1
[13] = HTS, parasite screen at 1 µg/mL, replicate 1, raw absorbance
[14] = HTS, parasite screen at 1 µg/mL, replicate 2
[15] = HTS, parasite screen at 1 µg/mL, replicate 2, raw absorbance
[16] = replicate 1, parasite screen at 1 µg/mL
[17] = replicate 2, parasite screen at 1 µg/mL

CCC[C@H](O)C[C@@H]1CC[C@H](C)CCCCC(=O)N(C)[C@@H](Cc2ccc(OCCO)cc2)C(=O)O1 [PF1163A]
T.vaginalis_%inb_Rep1 [1, 3]: 11.61% | T.vaginalis_%inb_Rep2 [1, 4]: 10.39% | NFF_Activity [2, 5]: I (otherwise these were reported as inactive (I))

COC1=C(N)C(=O)c2nc(-c3nc(C(=O)O)c(C)c(-c4ccc(OC)c(OC)c4O)c3N)ccc2C1=O [BIA-S1107]
T.vaginalis_%inb_Rep1 [1, 6]: 76.72% | T.vaginalis_%inb_Rep2 [1, 7]: 90.80% | NFF_Activity [2, 8]: A (active (A) compounds having >25% inhibitory activity)

CO[C@H]1C[C@@H]2CC[C@@H](C)[C@@](O)(O2)C(=O)C(=O)N2CCCC[C@H]2C(=O)O[C@H]([C@H](C)C[C@@H]2CC[C@@H](O)[C@H](OC)C2)CC(=O)[C@H](C)/C=C(\C)[C@@H](O)[C@@H](OC)C(=O)[C@H](C)C[C@H](C)/C=C/C=C/C=C/1C [BIA-R1183]
T.vaginalis_%inb_Rep1 [1, 6]: 10.28% | T.vaginalis_%inb_Rep2 [1, 7]: 12.55% | NFF_Activity [2, 8]: I (otherwise these were reported as inactive (I))

[N-]=[N+]=NCC(=O)N[C@H](CO)[C@H](O)c1ccc([N+](=O)[O-])cc1 [BIA-A1485]
T.vaginalis_%inb_Rep1 [1, 9]: 12.55% | T.vaginalis_%inb_Rep2 [1, 10]: 16.12% | NFF_Activity [2, 11]: I (otherwise these were reported as inactive (I))

CO[C@H]1C[C@H](O[C@H]2[C@H](C)O[C@@H](O[C@@H]3/C(C)=C/C[C@@H]4C[C@@H](C[C@]5(C=C[C@H](C)[C@@H](C(C)C)O5)O4)OC(=O)[C@@H]4C=C(C)[C@@H](O)[C@H]5OC/C(=C\C=C\[C@@H]3C)[C@]54O)C[C@@H]2OC)O[C@@H](C)[C@H]1NC(C)=O [Eprinomectin B1b]
T.vaginalis_%inb_Rep1 [1]: 14.00% | T.vaginalis_%inb_Rep2 [1]: 14.75% | T.vaginalis_Absorbance_Rep1 [1]: 0.969 | T.vaginalis_Absorbance_Rep2 [1]: 0.824 | NFF_Activity [2]: I (key: active (A) compounds having >25% inhibitory activity; otherwise these were reported as inactive (I))

CCC1OC(=O)C(C)C(=O)C(C)C(OC2OC(C)CC(N(C)C)C2O)C(C)(OC)CC(C)C(=O)C(C)C2N(CCCCn3cnc(-c4cccnc4)c3)C(=O)OC12C (stereo not drawn) [BIA-T1316]
T.vaginalis_%inb_Rep1 [1, 6]: 0.94% | T.vaginalis_%inb_Rep2 [1, 7]: 5.97% | NFF_Activity [2, 8]: I (otherwise these were reported as inactive (I))

C[C@@H](O)[C@H]1C(=O)N2C(C(=O)[O-])=C(SC3Cn4cnc[n+]4C3)[C@H](C)[C@H]12 (stereo partly drawn) [BIA-B1663]
T.vaginalis_%inb_Rep1 [1, 9]: 15.29% | T.vaginalis_%inb_Rep2 [1, 10]: 20.32% | NFF_Activity [2, 11]: I (otherwise these were reported as inactive (I))

C[C@H]1CCC/C=C/C(=O)c2c(O)cc(O)cc2CC(=O)O1 [BIA-D1399]
T.vaginalis_%inb_Rep1 [1, 9]: 13.95% | T.vaginalis_%inb_Rep2 [1, 10]: 13.67% | NFF_Activity [2, 11]: A (active (A) compounds having >25% inhibitory activity)

C/C=C/[C@@H]1C=C[C@@H]2C[C@H](C)CC[C@H]2[C@]1(C)/C(O)=C1/C(=O)[C@H](CO)N(C)C1=O [Equisetin]
T.vaginalis_%inb_Rep1 [1, 12]: 12.17% | T.vaginalis_Absorbance_Rep1 [1, 13]: 0.942 | T.vaginalis_%inb_Rep2 [1, 14]: 15.65% | T.vaginalis_Absorbance_Rep2 [1, 15]: 0.879 | NFF_Activity ([2]; NFF_NS1 screen at 5 µg/mL): I (otherwise these were reported as inactive (I))

CC[C@H](C)[C@H]1O[C@]2(C=C[C@@H]1C)C[C@@H]1C[C@@H](C/C=C(\C)[C@@H](O[C@H]3C[C@H](OC)[C@@H](O[C@H]4C[C@H](OC)[C@@H](O)[C@H](C)O4)[C@H](C)O3)[C@@H](C)/C=C/C=C3\CO[C@@H]4[C@H](O)C(C)C=C(C(=O)O1)[C@]34O)O2 (stereo partly drawn) [BIA-A1579]
T.vaginalis_%inb_Rep1 [1, 9]: 15.89% | T.vaginalis_%inb_Rep2 [1, 10]: 15.40% | NFF_Activity [2, 11]: I (otherwise these were reported as inactive (I))

C[N+]1(C)CCC2(c3cccc4c3NC3C4(C45CC[N+](C)(C)C4Nc4ccccc45)CC[N+]3(C)C)c3ccccc3NC21.[I-].[I-].[I-] (stereo not drawn) [BIA-H1942]
T.vaginalis_%inb_Rep1 [1, 16]: 9.49% | T.vaginalis_%inb_Rep2 [1, 17]: 13.53% | NFF_Activity ([2]; NFF cells, screen at 5 µg/mL): I (otherwise these were reported as inactive (I))

CC[C@H](C)C(=O)O[C@H]1C[C@@H](C)C=C2C=C[C@H](C)[C@H](CC[C@@H]3C[C@@H](O)CC(=O)O3)[C@H]21 [BIA-L1264]
T.vaginalis_%inb_Rep1 [1, 16]: 13.08% | T.vaginalis_%inb_Rep2 [1, 17]: 12.64% | NFF_Activity ([2]; NFF cells, screen at 5 µg/mL): A (active (A) compounds having >25% inhibitory activity)

COc1oc(C2C/C(=C/C(C)=C/C(C)=C/C(C)=C/c3ccc([N+](=O)[O-])cc3)CO2)c(C)c(=O)c1C (stereo not drawn) [Neoaureothin]
T.vaginalis_%inb_Rep1 [1, 3]: 14.76% | T.vaginalis_%inb_Rep2 [1, 4]: 12.19% | NFF_Activity [2, 5]: I (otherwise these were reported as inactive (I))

CCCCCCCCCCCC(=O)N[C@H]1CCOC1=O [Dodecanoyl-L-homoserine lactone]
T.vaginalis_%inb_Rep1 [1, 12]: 9.75% | T.vaginalis_Absorbance_Rep1 [1, 13]: 0.89 | T.vaginalis_%inb_Rep2 [1, 14]: 12.87% | T.vaginalis_Absorbance_Rep2 [1, 15]: 0.798 | NFF_Activity ([2]; NFF_NS1 screen at 5 µg/mL): I (otherwise these were reported as inactive (I))

C=CC(C)(C)C12CC3C(=O)Nc4ccccc4C(=O)N3C1Nc1ccccc12 (stereo not drawn) [BIA-A1686]
T.vaginalis_%inb_Rep1 [1, 9]: 14.16% | T.vaginalis_%inb_Rep2 [1, 10]: 12.87% | NFF_Activity [2, 11]: I (otherwise these were reported as inactive (I))

CC1(C)OC2CC(=O)OCC23C1CC(=O)C1(C)C3CCC2(C)C(c3ccoc3)OC(=O)C3OC321 (stereo not drawn) [BIA-L1755]
T.vaginalis_%inb_Rep1 [1, 16]: 11.46% | T.vaginalis_%inb_Rep2 [1, 17]: 13.09% | NFF_Activity ([2]; NFF cells, screen at 5 µg/mL): I (otherwise these were reported as inactive (I))

COc1cccc2oc3c4c(cc(OC)c3c(=O)c12)OC1OC=CC41 (stereo not drawn) [BIA-M1214]
T.vaginalis_%inb_Rep1 [1, 16]: 13.54% | T.vaginalis_%inb_Rep2 [1, 17]: 12.19% | NFF_Activity ([2]; NFF cells, screen at 5 µg/mL): I (otherwise these were reported as inactive (I))

CCCC[C@@H](C)[C@@H](OC(=O)C[C@@H](CC(=O)O)C(=O)O)[C@H](C[C@@H](C)CCCCCC[C@@H](O)C[C@H](O)[C@H](C)N)OC(=O)C[C@@H](CC(=O)O)C(=O)O [Fumonisin B2]
T.vaginalis_%inb_Rep1 [1, 12]: 14.71% | T.vaginalis_Absorbance_Rep1 [1, 13]: 0.992 | T.vaginalis_%inb_Rep2 [1, 14]: 10.52% | T.vaginalis_Absorbance_Rep2 [1, 15]: 0.799 | NFF_Activity ([2]; NFF_NS1 screen at 5 µg/mL): I (otherwise these were reported as inactive (I))

C/C=C/[C@@H]1C=C[C@@H]2C[C@H](C)CC[C@H]2[C@]1(C)/C(O)=C1/C(=O)[C@@H](CO)N(C)C1=O [Epiequisetin]
T.vaginalis_%inb_Rep1 [1, 12]: 11.85% | T.vaginalis_Absorbance_Rep1 [1, 13]: 0.929 | T.vaginalis_%inb_Rep2 [1, 14]: 4.34% | T.vaginalis_Absorbance_Rep2 [1, 15]: 0.68 | NFF_Activity ([2]; NFF_NS1 screen at 5 µg/mL): I (otherwise these were reported as inactive (I))

CN[C@@H]1C[C@H]2O[C@@](C)([C@@H]1OC)n1c3ccccc3c3c4c(c5c6ccccc6n2c5c31)C(=O)N[C@H]4O [UCN-02]
T.vaginalis_%inb_Rep1 [1, 12]: 9.65% | T.vaginalis_%inb_Rep2 [1, 14]: 20.96% | NFF_Activity ([2]; NFF fibroblast screen at 5 µg/mL, A = active, I = inactive): A (active (A) compounds having >25% inhibitory activity)

C=C[C@@](C)(CCC=C(C)C)c1ccc2c3c(c[nH]c13)C[C@@H](CO)NC(=O)[C@H](C(C)C)N2C [BIA-T1429]
T.vaginalis_%inb_Rep1 [1, 6]: 11.80% | T.vaginalis_%inb_Rep2 [1, 7]: 16.64% | NFF_Activity [2, 8]: I (otherwise these were reported as inactive (I))

C=C1CCOC2(C(O)C(C)(O)CO)NC(=O)C1(O)NC2=O (stereo not drawn) [BIA-B1367]
T.vaginalis_%inb_Rep1 [1, 9]: 15.02% | T.vaginalis_%inb_Rep2 [1, 10]: 15.26% | NFF_Activity [2, 11]: I (otherwise these were reported as inactive (I))

CCCCCCCCCCCCCCCC(=O)N[C@H]1C[C@@H](O)[C@@H](O)NC(=O)[C@@H]2[C@@H](O)[C@@H](C)CN2C(=O)[C@H]([C@H](O)CC(N)=O)NC(=O)[C@H]([C@H](O)[C@@H](O)c2ccc(O)c(OS(=O)(=O)O)c2)NC(=O)[C@@H]2C[C@@H](O)CN2C(=O)[C@H]([C@@H](C)O)NC1=O [FR 901379] (Palmitoyl-[Orn(4R-OH,5R-OH)]T[Hyp][hTyr(3S-OH,4S-OH,3'-OSO3H)][Gln(3R-OH)][Pro(3S-OH,4S-Me)]; lactam 1-C)
T.vaginalis_%inb_Rep1 [1, 12]: 12.55% | T.vaginalis_Absorbance_Rep1 [1, 13]: 0.942 | T.vaginalis_%inb_Rep2 [1, 14]: 13.45% | T.vaginalis_Absorbance_Rep2 [1, 15]: 0.806 | NFF_Activity ([2]; NFF_NS1 screen at 5 µg/mL): I (otherwise these were reported as inactive (I))

CCCCCCCCCCCCCCCC(=O)C1=C(O)C(CO)OC1=O (stereo not drawn) [BIA-R1082]
T.vaginalis_%inb_Rep1 [1, 6]: 10.55% | T.vaginalis_%inb_Rep2 [1, 7]: 12.25% | NFF_Activity [2, 8]: I (otherwise these were reported as inactive (I))

CC1=C[C@H]2O[C@@H]3[C@H](O)[C@@H](O)[C@](C)([C@@]2(CO)C[C@@H]1O)[C@]31CO1 [BIA-T1932]
T.vaginalis_%inb_Rep1 [1, 6]: 10.49% | T.vaginalis_%inb_Rep2 [1, 7]: 13.71% | NFF_Activity [2, 8]: I (otherwise these were reported as inactive (I))
